Measurements taken from ChEMBL document CHEMBL5154900, “Design and Synthesis of Dual EZH2/BRD4 Inhibitors to Target Solid Tumors” (J Med Chem, 2022).
pIC50: −log10 of the molar value. Calls of active or inactive are those of the source.

How the values were obtained:
[1] = Cmax in 12 hr fasted BALB/c mouse at 80 mg/kg, ip measured for 0.083 to 24 hrs by UPLC-MS/MS analysis; type: ADME, organism-based; design: dose 80 mg/kg, time upper 24 hrs, time lower 0.083 hrs, route ip; conditions: in vivo
[2] = AUC in 12 hr fasted BALB/c mouse at 80 mg/kg, ip measured for 0.083 to 24 hrs by UPLC-MS/MS analysis; type: ADME, organism-based; design: time lower 0.083 hrs, dose 80 mg/kg, time upper 24 hrs, route ip; conditions: in vivo
HCT-116 [3] = test: Induction of apoptosis in human HCT116 cells assessed as early apoptotic cells at 10 uM measured after 72 hrs by flow cytometry (reference value: 2.8 %); type: functional
[4] = Cmax in 12 hr fasted BALB/c mouse at 80 mg/kg, po measured for 0.083 to 24 hrs by UPLC-MS/MS analysis; type: ADME, organism-based; design: dose 80 mg/kg, time 0.083-24 hrs, route po; conditions: in vivo
HCT-116 [5] = test: Antitumor activity against human HCT-116 cells assessed as inhibition of colony formation measured after 12 to 20 days by crystal violet staining based analysis; type: functional, cell-based; conditions: dose <= 0.4 µM, time 12-20 day, DDE = dose-dependent effect
HCT-116 [6] = test: Effect on TXINP mRNA levels in human HCT-116 cells at 5 uM incubated for 48 hrs by RT-qPCR analysis; type: functional, cell-based
A549 [7] = test: Effect on TXINP mRNA levels in human A549 cells at 5 uM incubated for 48 hrs by RT-qPCR analysis; type: functional, cell-based
HCT-116 [8] = test: Induction of apoptosis in human HCT116 cells assessed as downregulation of Bcl-2 protein at 1 uM inubated for 72 hrs by Western blot analysis; type: functional, cell-based
[9] = biological target: T1, Bromodomain-containing protein 4 (Homo sapiens, UniProt O60885); test: Inhibition of BRD4 in human A549 cells assessed as increase in p21 levels incubated for 72 hrs by Western blot analysis; type: cell-based; conditions: dose <= 2.5 µM, DDE = dose-dependent effect
[10] = Tmax in 12 hr fasted BALB/c mouse at 80 mg/kg, po measured for 0.083 to 24 hrs by UPLC-MS/MS analysis; type: ADME, organism-based; conditions: in vivo, time 0.083-24 hrs
ASPC1 [11] = test: Induction of apoptosis in human ASPC-1 cells assessed as downregulation of Bcl-xl protein at 1 uM inubated for 72 hrs by Western blot analysis; type: functional, cell-based
ASPC1 [12] = test: Induction of apoptosis in human ASPC-1 cells assessed as downregulation of Bcl-2 protein at 1 uM inubated for 72 hrs by Western blot analysis; type: functional, cell-based
[13] = biological target: T2, Histone-lysine N-methyltransferase EZH2 (Homo sapiens, UniProt Q15910); test: Inhibition of EZH2 in human A549 cells assessed as decrease in H3K27me3 level at 0.05 uM incubated for 72 hrs by Western blot analysis; type: cell-based
Target sequence in this assay (Q15910 whole entry, looked up): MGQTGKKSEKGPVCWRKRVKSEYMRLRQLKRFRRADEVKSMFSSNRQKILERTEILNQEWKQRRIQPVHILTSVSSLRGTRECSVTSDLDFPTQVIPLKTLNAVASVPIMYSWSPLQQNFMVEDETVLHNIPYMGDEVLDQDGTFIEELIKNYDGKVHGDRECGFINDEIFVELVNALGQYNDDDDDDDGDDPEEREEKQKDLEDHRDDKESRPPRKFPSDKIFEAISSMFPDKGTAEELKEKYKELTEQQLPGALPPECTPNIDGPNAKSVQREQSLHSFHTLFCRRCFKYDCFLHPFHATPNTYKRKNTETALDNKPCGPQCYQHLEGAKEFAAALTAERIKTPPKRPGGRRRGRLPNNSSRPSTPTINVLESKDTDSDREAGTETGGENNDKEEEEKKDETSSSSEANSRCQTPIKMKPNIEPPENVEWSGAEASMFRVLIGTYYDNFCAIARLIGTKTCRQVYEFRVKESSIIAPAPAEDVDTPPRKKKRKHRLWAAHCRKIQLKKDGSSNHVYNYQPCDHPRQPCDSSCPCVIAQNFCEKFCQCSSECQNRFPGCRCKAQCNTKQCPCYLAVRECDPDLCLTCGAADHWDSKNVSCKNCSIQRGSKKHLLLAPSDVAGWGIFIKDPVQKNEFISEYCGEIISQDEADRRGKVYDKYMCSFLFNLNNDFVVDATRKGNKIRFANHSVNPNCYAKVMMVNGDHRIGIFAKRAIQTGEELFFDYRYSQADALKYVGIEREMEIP

ASPC1 [14] = test: Effect on ADRB2 mRNA levels in human ASPC1 cells at 5 uM incubated for 48 hrs by RT-qPCR analysis; type: functional, cell-based
HCT-116 [15] = test: Antiproliferative activity against human HCT-116 cells assessed as inhibition of cell proliferation at 1 uM incubated for 4 days by cell counter method; type: functional, cell-based; conditions: time 4.0 day
HCT-116 [16] = test: Induction of apoptosis in human HCT116 cells assessed as early apoptotic cells at 20 uM measured after 72 hrs by flow cytometry (reference value: 2.8 %); type: functional
[17] = biological target: T1, Bromodomain-containing protein 4; test: Displacement of fluorescein-labeled JQ1 from His6/TEV cleavage site fused human BRD4 (residues N44 to E168) expressed in Escherichia coli BL21 (DE3) incubated for 60 min by Fluorescence polarization assay
[18] = Half life in 12 hr fasted BALB/c mouse at 80 mg/kg, po measured for 0.083 to 24 hrs by UPLC-MS/MS analysis; type: ADME, organism-based; conditions: in vivo, time 0.083-24 hrs
[19] = biological target: T2, Histone-lysine N-methyltransferase EZH2
Target sequence in this assay (Q15910 whole entry): as the sequence (Q15910 whole entry, looked up) above

A549 [20] = test: Induction of cell cycle arrest in 24 hr starved human A549 cells assessed as accumulation at G0/G1 phase at 1 uM measured after 48 hrs by PI staining based flow cytometric analysis; type: functional
ASPC1 [21] = test: Effect on TRHDE mRNA levels in human ASPC1 cells at 5 uM incubated for 48 hrs by RT-qPCR analysis; type: functional, cell-based
[22] = biological target: T2, Histone-lysine N-methyltransferase EZH2; test: Inhibition of EZH2 in human ASPC1 cells assessed as decrease in H3K27me3 level at 0.05 uM incubated for 72 hrs by Western blot analysis; type: cell-based
Target sequence in this assay (Q15910 whole entry, looked up): as above

[23] = biological target: T1, Bromodomain-containing protein 4; test: Binding affinity to BRD4 in human A549 cell lysate assessed as increase in thermal stability at 10 uM incubated for 1 hr followed by temperature treatment at 45 to 54.5 degC for 3 mins by thermal shift assay; type: subcellular; conditions: time 63.0 min
ASPC1 [24] = test: Induction of cell cycle arrest in 24 hr starved human ASPC1 cells assessed as accumulation at G0/G1 phase at 1 uM measured after 48 hrs by PI staining based flow cytometric analysis; type: functional
A549 [25] = test: Inhibition of EZH2/BRD4 in human A549 cell lysate assessed as ternary complex formation at 1 uM preincubated for 24 hrs for 30 mins followed by DSP treatment by co-immunoprecipitation method; type: subcellular; conditions: time 24.5 hrs
HCT-116 [26] = test: Induction of apoptosis in human HCT116 cells assessed as downregulation of Bcl-xl protein at 1 uM inubated for 72 hrs by Western blot analysis; type: functional, cell-based
A549 [27] = test: Effect on ADRB2 mRNA levels in human A549 cells at 5 uM incubated for 48 hrs by RT-qPCR analysis; type: functional, cell-based
[28] = Toxicity in BALB/c mouse xenografted with human A549 cells assessed as adverse effects at 60 mg/kg, ip administered 6 times weekly for 38 days; type: organism-based; conditions: in vivo, 912 h, time 38 day
[29] = biological target: T1, Bromodomain-containing protein 4; test: Inhibition of BRD4 in human ASPC1 cells assessed as decrease in c-Myc level at 1 uM incubated for 72 hrs by Western blot analysis; type: cell-based
A549 [30] = test: Antitumor activity against human A549 cells xenografted in BALB/c mouse assessed as reduction in tumor volume at 60 mg/kg, ip administered 6 times weekly for 38 days and measured every 3 days relative to control; type: functional; design: scale not given: the % may be the effect or the level left; conditions: time 38 day
HCT-116 [31] = test: Induction of apoptosis in human HCT116 cells assessed as upregulation of p21 protein at 1 uM inubated for 72 hrs by Western blot analysis; type: functional, cell-based
ASPC1 [32] = test: Effect on TNFRSF21 mRNA levels in human ASPC1 cells at 5 uM incubated for 48 hrs by RT-qPCR analysis; type: functional, cell-based
HCT-116 [33] = test: Effect on TRHDE mRNA levels in human HCT-116 cells at 5 uM incubated for 48 hrs by RT-qPCR analysis; type: functional, cell-based
[34] = biological target: T2, Histone-lysine N-methyltransferase EZH2; test: Inhibition of EZH2 in human ASPC1 cells assessed as decrease in H3K27me3 levels at 1 uM incubated for 72 hrs by Western blot analysis; type: cell-based
Target sequence in this assay (Q15910 whole entry, looked up): as above

[35] = Bioavailability in 12 hr fasted BALB/c mouse at 80 mg/kg, po measured for 0.083 to 24 hrs by UPLC-MS/MS analysis; type: ADME, organism-based; conditions: in vivo, time 0.083-24 hrs
HCT-116 [36] = test: Effect on ADRB2 mRNA levels in human HCT-116 cells at 5 uM incubated for 48 hrs by RT-qPCR analysis; type: functional, cell-based
[37] = Tmax in 12 hr fasted BALB/c mouse at 80 mg/kg, ip measured for 0.083 to 24 hrs by UPLC-MS/MS analysis; type: ADME, organism-based; conditions: in vivo, time 0.083-24 hrs

CCN(c1cc(-c2ccc(OCCCCCNC(=O)C[C@@H]3N=C(c4ccc(Cl)cc4)c4c(sc(C)c4C)-n4c(C)nnc43)cc2)cc(C(=O)NCc2c(C)cc(C)[nH]c2=O)c1C)C1CCOCC1
63.4%: Activity (HCT-116 [3]) | Activity (A549 [30])
4.16 h: half-life [18]
4.94%: bioavailability [35]
273 µg·h/mL: AUC [2]
6.31: pIC50 [19]
1 h: Tmax [10] | Tmax [37]
4380 ng/mL: Cmax [4]
Non-Toxic: Activity [28]
7.47: pIC50 [17]
active: Activity (HCT-116 [5]) Dde | Activity (HCT-116 [6]) | Activity (A549 [7]) | Activity (HCT-116 [8]) | inhibition [9] Dde | Activity (ASPC1 [11]) | Activity (ASPC1 [12]) | inhibition [13] | Activity (ASPC1 [14]) | Activity (HCT-116 [15]) | Activity (A549 [20]) | Activity (ASPC1 [21]) | inhibition [22] | Activity [23] | Activity (ASPC1 [24]) | inhibition (A549 [25]) | Activity (HCT-116 [26]) | Activity (A549 [27]) | inhibition [29] | Activity (HCT-116 [31]) | Activity (ASPC1 [32]) | Activity (HCT-116 [33]) | inhibition [34] | Activity (HCT-116 [36])
72.9%: Activity (HCT-116 [16])
27100 ng/mL: Cmax [1]
